Source: article PMC10135964, “One Scaffold, Two Conformations: The Ring-Flip of the Messenger InsP8 Occurs under Cytosolic Conditions” (Biomolecules, 2023)
Read-outs that look alike come from different tables or passages of the source. One block for each molecule: values may come before it.

How the values were obtained:
[1] = set-up: method as in PMID 27460418, PMID 15708805, doi:10.1016/j.molstruc.2007.03.035; conditions: 31P NMR (22 °C); equation as printed refers to InsP8 complexes; cited from earlier work
[2] = set-up: method as in doi:10.1351/pac199163071015; conditions: 150 mM NaCl, 37 °C; cited from earlier work
[3] = 1H,13C BIRD-HMQC NMR quantification of axial vs. equatorial conformer; format: physicochemical; conditions: 50 µM, 130 mM KCl, 10 mM NaCl, 4 °C
Protocol: Samples for HMQC-NMR studies contained 50 µM ^13C6-labeled InsPs (InsP6/5PP-InsP5/InsP8), 2 mM bis-tris-propane, 130 mM KCl, 10 mM NaCl and 0/50/250 µM MgCl2 in D2O.
BIRD-HMQC NMR spectra were recorded at 277 K and 600 MHz (^1H frequency) on a Bruker AV-III NMR spectrometer (Bruker Biospin, Rheinstetten, Germany) using cryogenically cooled 5 mm QCI-triple resonance probe equipped with one-axis self-shielded gradients. The spectrometer was operated using topspin 3.5 pl6 software. Instrument temperature was calibrated against […] according to Findeisen et al.. Acquisition parameters were SW(^13C): 60–90 ppm, NS: 128, TD(^13C): 64.
BIRD-HMQC spectra were recorded at 277 K as described above, with samples containing 200 µM InsPs, 130 mM KCl, 10 mM NaCl, 2mM BTP in D2O. pH was set to pH* 9.5 for InsP6, pH* 8.8 for 5PP-InsP5 and pH* 8.5 for InsP8 (pH = 0.929 × pH* + 0.42 [35]). NOESY-HMQC spectra of the same samples were subsequently recorded using mixing times of 80 ms for InsP6 and 5PP-InsP5 and 200 ms for InsP8. Conformational exchange on the time-scale of the experiment created cross-peaks between corresponding peaks in different conformations, which allowed us to assign each peak of the equatorial conformer to its axial counterpart.

[4] = as above; format: physicochemical; conditions: pH* 8.5, 5 equiv. Ca2+, 130 mM KCl, 10 mM NaCl
[5] = set-up: method as in PMID 27460418, PMID 15708805, doi:10.1016/j.molstruc.2007.03.035; conditions: Potentiometry (37 °C); equation as printed refers to InsP8 complexes; cited from earlier work
[6] = pH* 9.5, without divalent cations

Structure (SMILES): O=P(O)(O)CP(=O)(O)O[C@H]1[C@H](OP(=O)(O)O)[C@@H](OP(=O)(O)O)[C@@H](OP(=O)(O)O)[C@@H](OP(=O)(O)O)[C@@H]1OP(=O)(O)O [5PCP-InsP5]
log K, 2 K^+ + H5L^9− ↔ [K2(H5L)]^7− [1]: 2.79(7) | log K, 3 K^+ + H4L^10− ↔ [K3(H4L)]^7− [1]: 3.94(4) | log K, 4 K^+ + H2L^12− ↔ [K4(H2L)]^8− [1]: 4.61(3) | log K, 4 K^+ + H3L^11− ↔ [K4(H3L)]^7− [1]: 4.50(5) | log K, 5 K^+ + HL^13− ↔ [K5(HL)]^8− [1]: 6.57(3) | log K, L^14− + 2 H^+ ↔ H2L^12− [1]: 22.42(2) | log K, L^14− + 3 H^+ ↔ H3L^11− [1]: 32.26(2) | log K, L^14− + 4 H^+ ↔ H4L^10− [1]: 40.94(2) | log K, L^14− + 5 H^+ ↔ H5L^9− [1]: 47.67(2) | log K, L^14− + 6 H^+ ↔ H6L^8− [1]: 51.93(2) | log K, L^14− + 7 H^+ ↔ H7L^7− [1]: 55.64(2) | log K, L^14− + H^+ ↔ HL^13− [1]: 11.48(1) | log K, Mg^2+ + H2L^12− + 3 K^+ ↔ [MgK3(H2L)]^7− [1]: 9.75(7) | log K, Mg^2+ + H4L^10− + 2 K^+ ↔ [MgK2(H4L)]^6− [1]: 6.96(7) | log K, Mg^2+ + H5L^9− + K^+ ↔ [MgK(H5L)]^6− [1]: 5.26(7) | log K, Mg^2+ + H6L^8− ↔ [Mg(H6L)]^6− [1]: 4.71(7) | log K, Mg^2+ + HL^13− + 4 K^+ ↔ [MgK4(HL)]^7− [1]: 11.64(5)

Structure (SMILES): Nc1ncnc2c1ncn2[C@@H]1O[C@H](COP(=O)(O)OP(=O)(O)OP(=O)(O)O)[C@@H](O)[C@H]1O [ATP]
log(K), Mg^2+ + ATP^4− → [MgATP]^2− [2]: 4.34 | log(K), Mg^2+ + HATP^3− → [Mg(HATP)]^− [2]: 2.39

proportion in axial conformation ([3]; pH* 8.5 (=pH 8.3) and higher, 5 equiv. Mg2+): exclusively the axial conformation | proportion in axial conformation ([3]; pH* 8.5, without divalent cations): about 10% | proportion in axial conformation [3, 6]: only detected in the axial conformation | proportion in axial conformation [4]: About 60%
Structure (SMILES): O=P(O)(O)O[C@H]1[C@@H](OP(=O)(O)O)[C@H](OP(=O)(O)O)[C@@H](OP(=O)(O)OP(=O)(O)O)[C@H](OP(=O)(O)O)[C@H]1OP(=O)(O)O [5PP-InsP5]

proportion in axial conformation ([3]; pH* 9.0, 1 equiv. Mg2+): about 30% | proportion in axial conformation ([3]; pH* 9.0, without divalent cations): traces | proportion in axial conformation ([3]; pH* 9.5, 1 equiv. Mg2+): ~90% | proportion in axial conformation [3, 6]: less than half
Structure (SMILES): O=P(O)(O)O[C@H]1[C@H](OP(=O)(O)O)[C@@H](OP(=O)(O)O)[C@H](OP(=O)(O)O)[C@@H](OP(=O)(O)O)[C@H]1OP(=O)(O)O [InsP6]
log K, 3 K^+ + H4L^10− ↔ [K3(H4L)]^7− [5]: 3.36(5) | log K, 4 K^+ + H3L^11− ↔ [K4(H3L)]^7− [5]: 5.42(5) | log K, L^14− + 2 H^+ ↔ H2L^12− [5]: 21.3(1) | log K, L^14− + 3 H^+ ↔ H3L^11− [5]: 31.63(6) | log K, L^14− + 4 H^+ ↔ H4L^10− [5]: 40.42(6) | log K, L^14− + 5 H^+ ↔ H5L^9− [5]: 47.32(6) | log K, L^14− + 6 H^+ ↔ H6L^8− [5]: 53.04(7) | log K, L^14− + 7 H^+ ↔ H7L^7− [5]: 56.14(9) | log K, L^14− + H^+ ↔ HL^13− [5]: 10.8(1)
